Each structure is given as a SMILES string. Read-outs that look alike come from different tables or passages of the source.

The assay has as its target Bet BRD4 full length bromo-domain protein (Homo sapiens, UniProt O60885). Description: Bet bromodomain TR-FRET assay (displacement of acetyl histone peptide). Particulars: 300 nM acetyl histone peptide substrate. Format: binding.
[1] abbreviates: Bet BRD4 full length bromodomain protein, read-out: IC50.

Take `O=C1Nc2c(OCCn3cccn3)cc(NS(=O)(=O)c3ccc(Cl)cc3F)cc2C12CCC2` [Compound 161, N-(7′-(2-(1H-pyrazol-1-yl)ethoxy)-2′-oxospiro[cyclobutane-1,3′-indolin]-5′-yl)-4-chloro-2-fluorobenzenesulfonamide]: under setting [1], the IC50 is less than 600 nM.
Take `COc1ccccc1S(=O)(=O)Nc1cc(OCCN(C)C)c2c(c1)C1(CCC1)C(=O)N2` [Compound 162, N-(7′-(2-(dimethylamino)ethoxy)-2′-oxospiro[cyclobutane-1,3′-indolin]-5′-yl)-2-methoxybenzenesulfonamide]: the IC50 under setting [1] is less than 600 nM.
Take `CN(C)CCOc1cc(NS(=O)(=O)c2ccc(Cl)cc2F)cc2c1NC(=O)C21CCC1` [Compound 163, 4-Chloro-N-(7′-(2-(dimethylamino)ethoxy)-2′-oxospiro[cyclobutane-1,3′-indolin]-5′-yl)-2-fluorobenzenesulfonamide]: the half-maximal inhibitory concentration (IC50) under setting [1] is less than 600 nM.
As for `COc1ccccc1S(=O)(=O)Nc1cc(OCCCN(C)C)c2c(c1)C1(CCC1)C(=O)N2` [Compound 164, N-(7′-(3-(dimethylamino)propoxy)-2′-oxospiro[cyclobutane-1,3′-indolin]-5′-yl)-2-methoxybenzenesulfonamide], the IC50 under setting [1] is less than 600 nM.
Take `CCN(CC)CCOc1cc(NS(=O)(=O)c2ccccc2OC)cc2c1NC(=O)C21CCC1` [Compound 165, N-(7′-(2-(diethylamino)ethoxy)-2′-oxospiro[cyclobutane-1,3′-indolin]-5′-yl)-2-methoxybenzenesulfonamide]: the IC50 under setting [1] was less than 600 nM.
Turning to `COc1ccccc1S(=O)(=O)Nc1cc(OC(C)CN(C)C)c2c(c1)C1(CCC1)C(=O)N2` (centres unmarked) [Compound 166, N-(7′-((1-(dimethylamino)propan-2-yl)oxy)-2′-oxospiro[cyclobutane-1,3′-indolin]-5′-yl)-2-methoxybenzenesulfonamide], the IC50 under setting [1] is less than 600 nM.
For the molecule `COc1ccccc1S(=O)(=O)Nc1cc(OCCN2CCCC2)c2c(c1)C1(CCC1)C(=O)N2` [Compound 167, 2-Methoxy-N-(2′-oxo-7′-(2-(pyrrolidin-1-yl)ethoxy)spiro[cyclobutane-1,3′-indolin]-5′-yl)benzenesulfonamide], the 50% inhibitory concentration (IC50) under setting [1] is less than 600 nM.
Still for that read-out and setting: under `COc1ccccc1S(=O)(=O)Nc1cc(OCCN2CCOCC2)c2c(c1)C1(CCC1)C(=O)N2` [Compound 168, 2-Methoxy-N-(7′-(2-morpholinoethoxy)-2′-oxospiro[cyclobutane-1,3′-indolin]-5′-yl)benzenesulfonamide] stands less than 600 nM.
For the molecule `COc1ccccc1S(=O)(=O)Nc1cc(OC(=O)N2CCN(C)CC2)c2c(c1)C1(CCC1)C(=O)N2` [Compound 169, 5′-((2-Methoxyphenyl)sulfonamido)-2′-oxospiro[cyclobutane-1,3′-indolin]-7′-yl 4-methylpiperazine-1-carboxylate], where the note is “IC50, Bet BRD4 full length bromodomain protein”, the IC50 is less than 600 nM.
On to `COc1ccccc1S(=O)(=O)Nc1cc(OC(=O)N2CCOCC2)c2c(c1)C1(CCC1)C(=O)N2` [Compound 170, 5′-((2-Methoxyphenyl)sulfonamido)-2′-oxospiro[cyclobutane-1,3′-indolin]-7′-yl morpholine-4-carboxylate], for which the IC50 under setting [1] is less than 600 nM.
With `CN1CCC(Oc2cc(NS(=O)(=O)c3ccc(F)cc3F)cc3c2NC(=O)C32CCC2)CC1` [Compound 171], the half-inhibitory concentration (IC50) under setting [1] is less than 600 nM.
With `C=C(c1nccs1)c1cc(NS(=O)(=O)c2ccccc2OC)cc2c1NC(=O)C21CCC1` [Compound 172, 2-Methoxy-N-(2′-oxo-7′-(1-(thiazol-2-yl)vinyl)spiro[cyclobutane-1,3′-indolin]-5′-yl)benzenesulfonamide], the IC50 under setting [1] is less than 600 nM.
For `O=C1Nc2c(OC3CCC(F)(F)CC3)cc(NS(=O)(=O)c3ccc(Cl)cc3F)cc2C12CCC2` [Compound 175, 4-Chloro-N-(7′-((4,4-difluorocyclohexyl)oxy)-2′-oxospiro [cyclobutane-1,3′-indolin]-5′-yl)-2-fluorobenzenesulfonamide], under setting [1], the IC50 lay in the range of 600 to 1000 nM.
On to `O=C1CCC(Oc2cc(NS(=O)(=O)c3ccc(Cl)cc3F)cc3c2NC(=O)C32CCC2)CC1` [Compound 176, 4-chloro-2-fluoro-N-(2′-oxo-7′-((4-oxocyclohexyl)oxy)spiro[cyclobutane-1,3′-indolin]-5′-yl)benzenesulfonamide], for which the IC50 under setting [1] is less than 600 nM.
As for `COc1ccccc1S(=O)(=O)Nc1cc(C(C)c2nccs2)c2c(c1)C1(CCC1)C(=O)N2` (centres unmarked) [Compound 177, 2-Methoxy-N-(2′-oxo-7′-(1-(thiazol-2-yl)ethyl)spiro[cyclobutane-1,3′-indolin]-5′-yl)benzenesulfonamide], under setting [1], the IC50 is less than 600 nM.
As for `COc1ccccc1S(=O)(=O)Nc1cc(OC2CCN(C)CC2)c2c(c1)C1(CCC1)C(=O)N2` [Compound-127, 2-methoxy-N-(7′-((1-methylpiperidin-4-yl)oxy)-2′-oxospiro[cyclobutane-1,3′-indolin]-5′-yl)benzenesulfonamide], the IC50 under setting [1] is less than 600 nM.
For the molecule `COc1ccccc1S(C)(=O)=Nc1cc([N+](=O)[O-])c2c(c1)C1(CCC1)C(=O)N2` (centres unmarked) [Compound-181, 5′-(((2-Methoxyphenyl)(methyl)(oxo)-l6-sulfanylidene)amino)-7′-nitrospiro[cyclobutane-1,3′-indolin]-2′-one], the IC50 under setting [1] is more than 1000 nM.
Take `COc1ccccc1S(C)(=O)=Nc1cc(N)c2c(c1)C1(CCC1)C(=O)N2` (centres unmarked) [Compound-182, 7′-Amino-5′-(((2-methoxyphenyl)(methyl)(oxo)-l6-sulfanylidene)amino)spiro[cyclobutane-1,3′-indolin]-2′-one]: the IC50 under setting [1] was more than 1000 nM.
Still for that read-out and setting: next, `COc1ccccc1S(C)(=O)=Nc1cc(NC2CCN(C)CC2)c2c(c1)C1(CCC1)C(=O)N2` (centres unmarked) [Compound-183, 5′-(((2-Methoxyphenyl)(methyl)(oxo)-l6-sulfanylidene)amino)-7′-((1-methylpiperidin-4-yl)amino)spiro[cyclobutane-1,3′-indolin]-2′-one]: less than 600 nM; `CC(C)Oc1ccccc1S(=O)(=O)Nc1cc(OC2CCN(C)CC2)c2c(c1)C1(CCC1)C(=O)N2` [Compound-184, 2-Isopropoxy-N-(7′-((1-methylpiperidin-4-yl)oxy)-2′-oxospiro[cyclobutane-1,3′-indolin]-5′-yl)benzenesulfonamide]: less than 600 nM; `COc1cccc(F)c1S(=O)(=O)Nc1cc(OC2CCN(C)CC2)c2c(c1)C1(CCC1)C(=O)N2` [Compound-185, 2-Fluoro-6-methoxy-N-(7′-((1-methylpiperidin-4-yl)oxy)-2′-oxospiro[cyclobutane-1,3′-indolin]-5′-yl)benzenesulfonamide]: less than 600 nM.
On to `COc1cc(F)ccc1S(=O)(=O)Nc1cc(OC2CCN(C)CC2)c2c(c1)C1(CCC1)C(=O)N2` [Compound-189, 4-Fluoro-2-methoxy-N-(7′-((1-methylpiperidin-4-yl)oxy)-2′-oxospiro[cyclobutane-1.3′-indolin]-5′-yl)benzenesulfonamide], for which the IC50 under setting [1] is less than 600 nM.
As to `COc1ccccc1S(=O)(=O)Nc1cc(OCC2CN(C)C2)c2c(c1)C1(CCC1)C(=O)N2` [Compound-190, 2-Methoxy-N-(7′-((1-methylazetidin-3-yl)methoxy)-2′-oxospiro [cyclobutane-1,3′-indolin]-5′-yl)benzenesulfonamide], the IC50 under setting [1] was less than 600 nM.
Consider `O=C1Nc2c(OC3CCNCC3)cc(NS(=O)(=O)c3ccc(Cl)cc3F)cc2C12CCC2` [Compound-197, 4-Chloro-2-fluoro-N-(2′-oxo-7′-(piperidin-4-yloxy)spiro-[cyclobutane-1,3′-indolin]-5′-yl)benzene sulfonamide], for which, under setting [1], the IC50 is less than 600 nM.
Turning to `COc1ccccc1S(=O)(=O)Nc1cc(OCC2COCCN2)c2c(c1)C1(CCC1)C(=O)N2` (centres unmarked) [Compound-203, 2-Methoxy-N-(7′-(morpholin-3-ylmethoxy)-2′-oxospiro[cyclobutane-1,3′-indolin]-5′-yl)benzenesulfonamide], the IC50 under setting [1] was less than 600 nM.
The same measure, in the same setting: under `COc1ccccc1S(=O)(=O)Nc1cc(OC2CCC(O)CC2)c2c(c1)C1(CCC1)C(=O)N2` (centres unmarked) [Compound-208, N-(7′-((4-Hydroxycyclohexyl)oxy)-2′-oxospiro[cyclobutane-1,3′-indolin]-5′-yl)-2-methoxybenzenesulfonamide] stands less than 600 nM.
As for `COc1ccccc1S(=O)(=O)Nc1cc(OC2CCN(CCO)CC2)c2c(c1)C1(CCC1)C(=O)N2` [Compound-209, N-(7′-((1-(2-hydroxyethyl)piperidin-4-yl)oxy)-2′-oxospiro[cyclobutane-1,3′-indolin]-5′-yl)-2-methoxybenzenesulfonamide], the IC50 under setting [1] was less than 600 nM.
Turning to `CS(=O)(=O)N1CCC(Oc2cc(NS(=O)(=O)c3ccc(Cl)cc3F)cc3c2NC(=O)C32CCC2)CC1` [Compound-210, 4-Chloro-2-fluoro-N-(7′-((1-(methylsulfonyl)piperidin-4-yl)-oxy)-2′-oxospiro[cyclobutane-1,3′-indolin]-5′-yl)benzenesulfonamide], under setting [1], the IC50 is less than 600 nM.
On to `CN1CCC(NC(=O)c2cc(NS(=O)(=O)c3ccc(Cl)cc3F)cc3c2NC(=O)C32CCC2)CC1` [Compound-211, 5′-((4-Chloro-2-fluorophenyl)sulfonamido)-N-(1-methylpiperidin-4-yl)-2′-oxospiro[cyclobutane-1,3′-indoline]-7′-carboxamide], for which, under setting [1], the IC50 fell in the range of 600 to 1000 nM.
For the molecule `O=C1Nc2c(Oc3cc[nH]c(=O)c3)cc(NS(=O)(=O)c3ccc(Cl)cc3F)cc2C12CCC2` [Compound-212, 4-Chloro-2-fluoro-N-(2′-oxo-7′-((2-oxo-1,2-dihydropyridin-4-yl)oxy)spiro[cyclobutane-1,3′-indolin]-5′-yl)benzenesulfonamide], under setting [1], the IC50 was less than 600 nM.
For the molecule `COc1ccccc1S(=O)(=O)Nc1cc(OC2CCN(C)CC2)c2c(c1Cl)C1(CCC1)C(=O)N2` [Compound-215, N-(4′-chloro-7′-((1-methylpiperidin-4-yl)oxy)-2′-oxospiro-[cyclobutane-1,3′-indolin]-5′-yl)-2-methoxybenzenesulfonamide], the IC50 under setting [1] lay in the range of 600 to 1000 nM.
On to `COc1ccccc1S(=O)(=O)Nc1cc(B(O)O)c2c(c1)C1(CCC1)C(=O)N2` [Compound-217, (5′-((2-Methoxyphenyl)sulfonamido)-2′oxospiro[cyclobutane-1,3′-indolin]-7′-yl)boronic acid], for which the IC50 under setting [1] was more than 1000 nM.

The record behind these values is patent publication US10336697B2, “Spiro[cyclobutane-1,3′-indolin]-2′-one derivatives as bromodomain inhibitors” (Orion Corporation, priority 2015, dated 2019).
